Test results: patent publication US9181281B2, “Prodrugs of neuraminidase inhibitors” (priority 2008, dated 2015)
Like-named read-outs stand apart in the source and are kept apart here.

Columns and labels:
[1] = target: T1, hPEPT1 (Homo sapiens, UniProt P46059); experiment: [3H]Gly-Sar uptake inhibition in HeLa/hPEPT1 cells; assay type: cell-based; set-up: expressed in transfected cells; host or cells: HeLa
T1 sequence (P46059 1-708): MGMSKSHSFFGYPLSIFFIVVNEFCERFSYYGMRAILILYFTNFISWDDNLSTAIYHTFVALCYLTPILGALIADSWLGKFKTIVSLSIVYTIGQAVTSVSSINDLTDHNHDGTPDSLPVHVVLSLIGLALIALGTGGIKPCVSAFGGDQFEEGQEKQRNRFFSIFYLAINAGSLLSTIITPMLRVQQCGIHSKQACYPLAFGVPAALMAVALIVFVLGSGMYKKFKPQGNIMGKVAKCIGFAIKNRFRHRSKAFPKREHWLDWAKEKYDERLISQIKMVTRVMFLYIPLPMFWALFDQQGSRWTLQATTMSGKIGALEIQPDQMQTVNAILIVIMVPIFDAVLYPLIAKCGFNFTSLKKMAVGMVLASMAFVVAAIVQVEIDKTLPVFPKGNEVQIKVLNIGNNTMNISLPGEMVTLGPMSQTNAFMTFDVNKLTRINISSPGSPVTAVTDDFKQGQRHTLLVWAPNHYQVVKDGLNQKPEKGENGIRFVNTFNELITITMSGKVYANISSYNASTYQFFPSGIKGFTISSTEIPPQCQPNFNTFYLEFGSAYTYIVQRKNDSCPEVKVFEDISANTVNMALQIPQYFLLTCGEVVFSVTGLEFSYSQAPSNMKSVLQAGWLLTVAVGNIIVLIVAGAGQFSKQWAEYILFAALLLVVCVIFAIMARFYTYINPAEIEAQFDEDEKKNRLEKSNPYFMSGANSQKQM

[2] = Permeability in rat perfused jejunum; assay type: in vivo
Text: Improved permeability of prodrugs Zan-Val, GOC-Val, and 3-HPG-Ile compared to the parent compounds is observed in the rat perfused jejunum, as shown in FIG. 3.

[3] = target: T1, hPEPT1; experiment: [3H]Gly-Sar uptake inhibition in Caco-2 cells; assay type: cell-based
Description: The affinity of zanamivir, GOC, 3-hydroxyphenylglycine (3-HPG) and prodrugs thereof for particular transporters is evaluated using [^3H]Gly-Sar uptake inhibition in Caco-2 cells and in HeLa/hPEPT1 cells. Valacyclovir, a known substrate of hPEPT1, was used as positive control (Table 1). […] The valyl and isoleucyl prodrugs of zanamivir, GOC, and 3-HPG have higher affinity for hPEPT1 than the parent compounds.

[4] = AUC and bioavailability of GOC and GOC prodrugs in fasted rats (IV or duodenal injection); details: for AUC0-4 hr, Prodrug / AUC0-4 hr, Total AUC / AUC0-4 hr, GOC / % F: rat
Description: 10 mg-eq/kg of GOC or GOC prodrugs were directly injected to duodenum segment of fasted rats. […] Appropriate volume of blood samples was taken from the jugular vein at the predetermined time points.
Rat plasma samples were analyzed for GOC prodrug and GOC using LCMSMS following solid phase extraction sampling preparation. A reverse phase solid-phase cartridge (HLB, 30 mg/1 cc, Waters) was activated with 1.0 mL of methanol and equilibrated with 1.0 mL of water. A 250 ul aliquot of rat plasma was acidified with 250 uL of 1% TFA solution and loaded on to the cartridges. After washing with 1.0 ml water, the compounds are eluted with 1 ml of 2% acetic acid solution. The eluted solvent was evaporated under nitrogen stream in TurboVap and the residue was reconstituted in 250 ul of mobile phase.
Samples were analyzed using a LC/MS/MS system (Micromass Quattro II, HP 1100). The HPLC system consisted of a HP1100 system (Hewlett Packard, CA). 10 ul of sample was separated with a C18 column (2.1×150 mm) using a mobile phase of 10-30% acetonitrile:water containing 0.1% formic acid. Quattro II triple quadrupole mass spectrometer (Micromass, Beverly, Mass.) interfaced with the HPLC via electropray source was used for the mass analysis and detection. The data acquisition software was MassLynx (version 4.0). Calibration curves were constructed by weighted (1/x) least square regression of peak area versus concentrations of the calibration standards.
Bioavailability calculation is based on the AUC0-4 hrs.

[5] = 10 mg-eq/kg oral gavage to rats; cited from earlier work
[6] = test system: influenza virus neuraminidase; details: read-out: IC50, influenza virus neuraminidase; cited from earlier work
[7] = cited from earlier work; for bioavailability: species not stated
[8] = Hydrolysis of prodrugs in buffer over pH 1.2-7.4 at 37° C.; assay type: physicochemical; details: pH range 1.2-7.4, 37° C.
Description: The hydrolysis of prodrugs of the present invention in buffer was studied over the pH range 1.2-7.4 at 37° C.

[9] = target: T2, VACVase (Homo sapiens, UniProt Q86WA6); experiment: Hydrolysis of prodrugs by VACVase (Michaelis-Menten kinetics)
T2 sequence (Q86WA6 38-291): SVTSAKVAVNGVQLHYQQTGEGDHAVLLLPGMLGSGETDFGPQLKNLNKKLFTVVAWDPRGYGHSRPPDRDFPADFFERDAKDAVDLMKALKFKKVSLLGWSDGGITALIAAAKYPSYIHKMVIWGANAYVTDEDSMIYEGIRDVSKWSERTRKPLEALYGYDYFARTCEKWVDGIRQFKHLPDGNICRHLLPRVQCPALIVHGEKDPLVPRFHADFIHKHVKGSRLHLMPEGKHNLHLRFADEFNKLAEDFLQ

[10] = substrate: CC(C)[C@H](N)C(=O)OCCOCn1cnc2c(=O)[nH]c(N)nc21; experiment: purified protein, by the assay type; details: 25.0 °C
[11] = HeLa/hPEPT1 cells, mean ± sd, n = 2, read-out: IC50 of [3H]Gly-Sar uptake inhibition
[12] = duodenal administration (OGI) 10 mg-eq/kg

## NC(C(=O)O)c1cccc(O)c1 (stereo not shown) [3-HPG, 3-hydroxyphenylglycine]
[1]; HeLa/hPEPT1 cells
  affinity for the transporter: poor affinity
[1]; [11]
  IC50: > 5 mM
[2]
  jejunal permeability: very low, essentially zero permeability
[3]
  affinity for the transporter: poor affinity

## CCC(CC)O[C@@H]1C=C(C(=O)OCCNC(=O)[C@@H](N)C(C)C)C[C@H](NC(=N)N)[C@H]1NC(C)=O [GOC GlyOH L-Val]
[4]; rat plasma, OGI 10 mg-eq/kg
  species found in plasma after dosing: Only a trace amount of GOC is detected in the plasma
[4]; [12]
  AUC0-4 hr, Prodrug: 386 ± 406 (ng/mL) · hrs
  AUC0-4 hr, Total AUC: 401 ± 419 (ng/mL) · hrs

## CCC(CC)O[C@@H]1C=C(C(=O)OCC(C)OC(=O)[C@@H](N)C(C)C)C[C@H](NC(=N)N)[C@H]1NC(C)=O (stereo partly drawn) [GOC PG L-Val]
[4]; [12]
  AUC0-4 hr, Prodrug: 17 ± 12 (ng/mL) · hrs
  AUC0-4 hr, Total AUC: 116 ± 61 (ng/mL) · hrs

## CCC(CC)O[C@@H]1C=C(C(=O)O)C[C@H](NC(=N)N)[C@H]1NC(C)=O [GOC, guanidino oseltamivir carboxylate]
[4]; IV injection 1 mg/kg
  AUC0-4 hr, GOC: 385 ± 167 (ng/mL) · hrs
  AUC0-4 hr, Total AUC: 385 ± 167 (ng/mL) · hrs
[4]; IV injection 1 mg/kg (reference)
  % F: 100.0%
[4]; [12]
  AUC0-4 hr, GOC: 265 ± 91 (ng/mL) · hrs
  AUC0-4 hr, Total AUC: 265 ± 91 (ng/mL) · hrs
[4]; duodenal administration (OGI) 10 mg-eq/kg, based on AUC0-4 hrs
  % F: 4.6%
[5]
  % F: 4.0%
  Cmax: 60 ng/mL
[1]; HeLa/hPEPT1 cells
  affinity for the transporter: poor affinity
[1]; [11]
  IC50: 6.6 ± 3.9 mM
[2]
  jejunal permeability: very low, essentially zero permeability
[6]
  IC50: 0.9 nM
[7]
  bioavailability: ~4.0%
[3]
  affinity for the transporter: poor affinity

## CCC(CC)O[C@@H]1C=C(C(=O)OC(C)OC(=O)[C@@H](N)[C@@H](C)CC)C[C@H](NC(=N)N)[C@H]1NC(C)=O (stereo partly shown) [GOC-Ile, isoleucine ethoxyester of guanidine oseltamivir]
[8]
  hydrolysis behaviour in buffer: pH dependent hydrolysis
[1]; [11]
  IC50: 0.45 ± 0.18 mM

## CCC(CC)O[C@@H]1C=C(C(=O)OC(C)OC(=O)[C@@H](N)C(C)C)C[C@H](NC(=N)N)[C@H]1NC(C)=O (stereo partly shown) [GOC-Val, valine ethoxyester of guanidine oseltamivir]
[8]
  hydrolysis behaviour in buffer: pH dependent hydrolysis
[9]; hydrolysis by VACVase, 25° C.
  Kcat: 8.7 s⁻¹
  Km: 2.37 mM
  Vmax: 19.4 nmol/min/μg of VACVase
[1]; [11]
  IC50: 0.19 ± 0.01 mM
[2]
  jejunal permeability: high permeability, higher than that of metoprolol

## CCC(CC)O[C@@H]1C=C(C(=O)O)C[C@H](N)[C@H]1NC(C)=O [GS4071, oseltamivir carboxylate]
[5]
  Cmax: 30 ng/mL
[7]
  bioavailability: ~4.0%

## CCOC(=O)C1=C[C@@H](OC(CC)CC)[C@H](NC(C)=O)[C@@H](N)C1 [GS4104, oseltamivir]
[5]
  % F: 35%
  Cmax: 47 ng/mL
[7]; in rats, mice, dogs and ferrets
  oral bioavailability: 11-73%

## CCOC(=O)C1=C[C@@H](OC(CC)CC)[C@H](NC(C)=O)[C@@H](NC(=N)N)C1 [GS4109]
[5]
  Cmax: 30 ng/mL
[7]
  bioavailability: approximately 2%

## CC(C)[C@H](N)C(=O)OCCOCn1cnc2c(=O)[nH]c(N)nc21 [Valcyclovir, Valacyclovir]
[9]
  Vmax: 280 nmol/min/μg of VACVase
[1]
  IC50: 1.88 ± 0.51 mM

## CC[C@H](C)[C@H](N)C(=O)OC(C)OC(=O)C1=C[C@H](NC(=N)N)[C@@H](NC(C)=O)[C@H]([C@H](O)[C@H](O)CO)O1 (stereo partly shown) [Zan-Ile, zanamivir ethoxyisoleucine ester]
[1]; [11]
  IC50: 3.04 ± 0.8 mM

## CC(=O)N[C@H]1[C@H]([C@H](O)[C@H](O)CO)OC(C(=O)OC(C)OC(=O)[C@@H](N)C(C)C)=C[C@@H]1NC(=N)N (stereo partly shown) [Zan-Val, valine ethoxyester of zanamivir]
[8]
  hydrolysis behaviour in buffer: pH dependent hydrolysis
[9]; hydrolysis by VACVase, 25° C.
  Kcat: 21.2 s⁻¹
  Km: 1.55 mM
  Vmax: 47.2 nmol/min/μg of VACVase
[1]; [11]
  IC50: 1.95 ± 0.19 mM
[2]
  jejunal permeability: high permeability, higher than that of metoprolol

## CC(=O)N[C@H]1[C@H]([C@H](O)[C@H](O)CO)OC(C(=O)O)=C[C@@H]1N=C(N)N [Zanamivir, zanamivir]
[5]
  % F: 3.7%
  Cmax: 60 ng/mL
[1]; HeLa/hPEPT1 cells
  affinity for the transporter: poor affinity
[1]; [11]
  IC50: > 30 mM
[2]
  jejunal permeability: very low, essentially zero permeability
[7]; in vivo, po
  absolute oral availability: ~2%
[3]
  affinity for the transporter: poor affinity

## CCC(CC)[C@H](NC(C)=O)[C@@H]1[C@H](O)[C@@H](C(=O)O)C[C@H]1N=C(N)N [peramivir]
[7]; peramivir, clinical trials context
  oral bioavailability: ≤ 3%

B1: VACVase (Homo sapiens) (protein)
chain: T2 sequence (Q86WA6 38-291)
[10]
  Km: 0.59 mM
  kcat: 126 s⁻¹
  kcat/Km: 213000 M⁻¹ s⁻¹
